Earlier results on 4 compounds are cited in PMC4258517 (Antiviral research, 2014).

As a reminder, the IC50 is the concentration at which inhibition is half-maximal.

For one data set, the system named is BKV. To be noted: HK2 cells, 15 μM; ref Wright et al., 2009.
The subject of a further data set is SV40. The note with it: 100 μM; ref Wright et al., 2009.
A further data set relates to patients with PML. To be noted: trial prematurely terminated, ref Clifford et al., 2013.
The subject of data set [1] is SV40 large T antigen ATPase. The note with it: ref Seguin et al., 2012b.
For data set [2] the following is noted: read-out: MTS assay IC50; cytotoxicity; ref Seguin et al., 2012b. For orientation: Tetrazolium dyes change colour on reduction, which living cells bring about.

Consider `CC1=C(C(=O)OCc2ccccc2)C(c2ccc(-c3ccccc3)cc2)NC(=O)N1CCCCCC(=O)O` (stereo not shown) [MAL2-11B], for which the “reduction of BKV viral load” value in the data set with BKV is given as “one log reduction”. In addition, the “reduction in SV40 DNA replication” value with SV40 is given as “fivefold reduction”.

In the case of `OC(c1cc(C(F)(F)F)nc2c(C(F)(F)F)cccc12)C1CCCCN1` (stereo not shown) [Mefloquine], in the data set on patients with PML, the clinical trial outcome is “lack of efficacy”.

As for `Oc1c(Cl)cc(Cl)cc1Sc1cc(Cl)cc(Cl)c1O` [bithionol], in data set [1], the “mechanism of inhibition on SV40 protein” value is “competitive”. Further, the IC50 in data set [2] is 68 µM.

Consider `Oc1c(Cl)cc(Cl)c(Cl)c1Cc1c(O)c(Cl)cc(Cl)c1Cl` [hexachlorophene], for which the “mechanism of inhibition on SV40 protein” value in data set [1] is on record as “competitive”. The IC50 in data set [2] was 55 µM.
